# Laboratory results from patent US20080051387A1, “TETRAHYDROPYRIDO[3,4-D]PYRIMIDINES AND RELATED ANALOGUES” (priority 2006, published 2008).
# Molecular target: T1, chimeric human H3 receptor (Homo sapiens, UniProt Q9Y5N1)
# T1 construct: rat Galpha-i2 (Gnai2, rat); made in house; host or cells: Sf9 insect cells (baculovirus); P2 membranes
# Experiment: Chimeric human H3 receptor screening GTP binding assay (inhibition of histamine-stimulated GTP-gamma35S binding, Example 8)
# Assay type: biochemical
# Conditions: 1 h; assay described in Example 8; symbol "!" in column headed Ki; read-out: Ki ("!": percent inhibition of agonist-induced GTP-gammaS binding to H3)
# Summary of the method: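 Sf9 membranes co-expressing chimeric human H3 receptor and heterotrimeric G-protein (35 μg protein) incubated 60 min at room temperature with 4 μM compound, 1 μM histamine and 125 pM GTP-gamma35S in pH 7.4 buffer with 10 μM GDP. Filter-bound radioactivity, nonspecific (10 μM GTP-gammaS) subtracted, reported as % inhibition of histamine signal.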
# T1 sequence (Q9Y5N1 with tags, fused parts or gaps): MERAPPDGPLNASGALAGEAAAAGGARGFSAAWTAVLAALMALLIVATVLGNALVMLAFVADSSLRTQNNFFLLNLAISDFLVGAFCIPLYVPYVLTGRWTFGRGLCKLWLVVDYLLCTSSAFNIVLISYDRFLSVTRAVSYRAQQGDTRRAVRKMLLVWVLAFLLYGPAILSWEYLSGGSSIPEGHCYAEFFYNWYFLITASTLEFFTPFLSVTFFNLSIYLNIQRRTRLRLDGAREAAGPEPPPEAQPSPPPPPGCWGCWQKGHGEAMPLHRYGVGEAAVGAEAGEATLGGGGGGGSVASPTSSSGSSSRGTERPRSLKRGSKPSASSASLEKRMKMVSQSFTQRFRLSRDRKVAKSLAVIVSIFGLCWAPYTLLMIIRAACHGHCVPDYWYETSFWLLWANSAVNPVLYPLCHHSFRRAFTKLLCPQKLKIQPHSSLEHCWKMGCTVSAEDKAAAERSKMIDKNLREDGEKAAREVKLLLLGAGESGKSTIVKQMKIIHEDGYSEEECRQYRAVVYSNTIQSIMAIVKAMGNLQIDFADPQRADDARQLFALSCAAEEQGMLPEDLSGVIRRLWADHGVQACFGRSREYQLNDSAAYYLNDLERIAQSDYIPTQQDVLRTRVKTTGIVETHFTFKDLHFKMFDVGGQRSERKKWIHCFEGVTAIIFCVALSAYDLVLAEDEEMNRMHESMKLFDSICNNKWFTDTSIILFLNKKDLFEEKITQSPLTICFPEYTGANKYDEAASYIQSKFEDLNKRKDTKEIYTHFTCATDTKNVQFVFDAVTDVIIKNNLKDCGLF
row,SMILES,inhibition at 4 µM
1,"COc1cc(/C=C/C(=O)N2CCc3cnc(N4CCN(C5CCC5)CC4)nc3CC2)ccc1OCc1ccccc1 [Compound 561, 7-{(2E)-3-[4-(benzyloxy)-3-methoxyphenyl]prop-2-enoyl}-2-(4-cyclobutylpiperazin-1-yl)-6,7,8,9-tetrahydro-5H-pyrimido[4,5-d]azepine]",≥ 90%
2,"COc1ccccc1/C=C/C(=O)N1CCc2cnc(N3CCN(C4CCC4)CC3)nc2CC1 [Compound 568, 2-(4-cyclobutylpiperazin-1-yl)-7-[(2E)-3-(2-methoxyphenyl)prop-2-enoyl]-6,7,8,9-tetrahydro-5H-pyrimido[4,5-d]azepine]",≥ 90%
3,"COc1cc(/C=C/C(=O)N2CCc3cnc(N4CCN(C5CCC5)CC4)nc3CC2)cc(OC)c1OC [Compound 566, 2-(4-cyclobutylpiperazin-1-yl)-7-[(2E)-3-(3,4,5-trimethoxyphenyl)prop-2-enoyl]-6,7,8,9-tetrahydro-5H-pyrimido[4,5-d]azepine]",≥ 90%

# Other lines, results leading:
row,inhibition at 4 µM,SMILES
1,≥ 90%,"COc1ccc(C(=O)N2CCc3cnc(N4CCN(C5CCC5)CC4)nc3CC2)c(OC)c1 [Compound 431, 2-(4-cyclobutylpiperazin-1-yl)-7-(2,4-dimethoxybenzoyl)-6,7,8,9-tetrahydro-5H-pyrimido[4,5-d]azepine]"
2,≥ 90%,"O=C(/C=C/c1ccccc1F)N1CCc2cnc(N3CCN(C4CCC4)CC3)nc2CC1 [Compound 547, 2-(4-cyclobutylpiperazin-1-yl)-7-[(2E)-3-(2-fluorophenyl)prop-2-enoyl]-6,7,8,9-tetrahydro-5H-pyrimido[4,5-d]azepine]"
3,≥ 90%,"Cc1c(N)cccc1C(=O)N1CCc2cnc(N3CCN(C4CCC4)CC3)nc2CC1 [Compound 538, 3-{[2-(4-cyclobutylpiperazin-1-yl)-5,6,8,9-tetrahydro-7H-pyrimido[4,5-d]azepin-7-yl]carbonyl}-2-methylaniline]"
4,≥ 90%,"O=C(c1ccc(F)c(Br)c1)N1CCc2cnc(N3CCN(C4CCC4)CC3)nc2CC1 [Compound 401, 7-(3-bromo-4-fluorobenzoyl)-2-(4-cyclobutylpiperazin-1-yl)-6,7,8,9-tetrahydro-5H-pyrimido[4,5-d]azepine]"
5,≥ 90%,"Cn1nc(C(C)(C)C)cc1C(=O)N1CCc2cnc(N3CCN(C4CCC4)CC3)nc2CC1 [Compound 506, 7-[(3-tert-butyl-1-methyl-1H-pyrazol-5-yl)carbonyl]-2-(4-cyclobutylpiperazin-1-yl)-6,7,8,9-tetrahydro-5H-pyrimido[4,5-d]azepine]"
6,≥ 90%,"O=C(Cc1ccc(F)cc1)N1CCc2cnc(N3CCN(C4CCC4)CC3)nc2CC1 [Compound 516, 2-(4-cyclobutylpiperazin-1-yl)-7-[(4-fluorophenyl)acetyl]-6,7,8,9-tetrahydro-5H-pyrimido[4,5-d]azepine]"
7,≥ 90%,"Cn1nc(C(F)(F)F)cc1-c1ccc(C(=O)N2CCc3cnc(N4CCN(C5CCC5)CC4)nc3CC2)s1 [Compound 460, 2-(4-cyclobutylpiperazin-1-yl)-7-({5-[1-methyl-3-(trifluoromethyl)-1H-pyrazol-5-yl]-2-thienyl}carbonyl)-6,7,8,9-tetrahydro-5H-pyrimido[4,5-d]azepine]"
8,≥ 90%,"Cc1ccc(C(=O)N2CCc3cnc(N4CCN(C5CCC5)CC4)nc3CC2)cc1Br [Compound 400, 7-(3-bromo-4-methylbenzoyl)-2-(4-cyclobutylpiperazin-1-yl)-6,7,8,9-tetrahydro-5H-pyrimido[4,5-d]azepine]"
9,≥ 90%,"O=C(c1ccc(F)c(F)c1)N1CCc2cnc(N3CCN(C4CCC4)CC3)nc2CC1 [Compound 390, 2-(4-cyclobutylpiperazin-1-yl)-7-(3,4-difluorobenzoyl)-6,7,8,9-tetrahydro-5H-pyrimido[4,5-d]azepine]"
10,≥ 90%,"Nc1ccccc1C(=O)N1CCc2cnc(N3CCN(C4CCC4)CC3)nc2CC1 [Compound 531, 2-{[2-(4-cyclobutylpiperazin-1-yl)-5,6,8,9-tetrahydro-7H-pyrimido[4,5-d]azepin-7-yl]carbonyl}aniline]"
11,≥ 90%,"O=C(c1ccccc1-c1ccccc1)N1CCc2cnc(N3CCN(C4CCC4)CC3)nc2CC1 [Compound 409, 7-(biphenyl-2-ylcarbonyl)-2-(4-cyclobutylpiperazin-1-yl)-6,7,8,9-tetrahydro-5H-pyrimido[4,5-d]azepine]"

# Same assay, conditions: 1 h; assay of Example 8; symbol "!" in column headed Ki; read-out: percent inhibition of agonist-induced GTP-gammaS binding to H3
row,SMILES,inhibition at 4 µM
1,"Cn1ccnc1CN1CCc2cnc(N3CCN(C4CCC4)CC3)nc2CC1 [Compound 235, 2-(4-cyclobutylpiperazin-1-yl)-7-[(1-methyl-1H-imidazol-2-yl)methyl]-6,7,8,9-tetrahydro-5H-pyrimido[4,5-d]azepine]",≥ 90%
2,"Cc1cc(CN2CCc3cnc(N4CCN(C5CCC5)CC4)nc3CC2)n(C)n1 [Compound 241, 2-(4-cyclobutylpiperazin-1-yl)-7-[(1,3-dimethyl-1H-pyrazol-5-yl)methyl]-6,7,8,9-tetrahydro-5H-pyrimido[4,5-d]azepine]",≥ 90%
3,"CCCCCN1CCc2cnc(N3CCN(C4CCC4)CC3)nc2CC1 [Compound 249, 2-(4-cyclobutylpiperazin-1-yl)-7-pentyl-6,7,8,9-tetrahydro-5H-pyrimido[4,5-d]azepine]",≥ 90%

# The remaining lines, values ahead:
row,inhibition at 4 µM,SMILES
1,≥ 90%,"O=C(Cc1ccc(Cl)cc1)N1CCc2cnc(N3CCN(C4CCC4)CC3)nc2CC1 [Compound 285, 7-[(4-chlorophenyl)acetyl]-2-(4-cyclobutylpiperazin-1-yl)-6,7,8,9-tetrahydro-5H-pyrimido[4,5-d]azepine]"
2,≥ 90%,"O=C(c1cccc(Oc2ccccc2)c1)N1CCc2cnc(N3CCN(C4CCC4)CC3)nc2CC1 [Compound 374, 2-(4-cyclobutylpiperazin-1-yl)-7-(3-phenoxybenzoyl)-6,7,8,9-tetrahydro-5H-pyrimido[4,5-d]azepine]"
3,≥ 90%,"O=C(Cc1ccccc1C(F)(F)F)N1CCc2cnc(N3CCN(C4CCC4)CC3)nc2CC1 [Compound 295, 2-(4-cyclobutylpiperazin-1-yl)-7-{[2-(trifluoromethyl)phenyl]acetyl}-6,7,8,9-tetrahydro-5H-pyrimido[4,5-d]azepine]"
4,≥ 90%,"O=C(COc1ccccc1)N1CCc2cnc(N3CCN(C4CCC4)CC3)nc2CC1 [Compound 315, 2-(4-cyclobutylpiperazin-1-yl)-7-(phenoxyacetyl)-6,7,8,9-tetrahydro-5H-pyrimido[4,5-d]azepine]"
5,≥ 90%,"Cc1ccccc1C(=O)N1CCc2cnc(N3CCN(C4CCC4)CC3)nc2CC1 [Compound 189, 2-(4-cyclobutylpiperazin-1-yl)-7-(2-methylbenzoyl)-6,7,8,9-tetrahydro-5H-pyrimido[4,5-d]azepine]"
6,≥ 90%,"Cc1cccc(OCC(=O)N2CCc3cnc(N4CCN(C5CCC5)CC4)nc3CC2)c1C [Compound 327, 2-(4-cyclobutylpiperazin-1-yl)-7-[(2,3-dimethylphenoxy)acetyl]-6,7,8,9-tetrahydro-5H-pyrimido[4,5-d]azepine]"
7,≥ 90%,"CCC(=O)N1CCc2cnc(N3CCN(C4CCC4)CC3)nc2CC1 [Compound 184, 2-(4-cyclobutylpiperazin-1-yl)-7-propionyl-6,7,8,9-tetrahydro-5H-pyrimido[4,5-d]azepine]"

# Same assay, conditions: symbol ! in Ki; test compound 4 μM, 1 μM histamine; read-out: percent inhibition of agonist-induced GTP-gammaS binding to H3
row,inhibition at 4 µM,SMILES
1,≥ 90%,"CCCC(C)C(C)N1CCc2c(ncnc2N2CCN(C3CCC3)CC2)C1 (stereo not drawn) [Compound 125, 4-(4-cyclobutylpiperazin-1-yl)-7-(1,2-dimethylpentyl)-5,6,7,8-tetrahydropyrido[3,4-d]pyrimidine]"
2,≥ 90%,"Cn1ccnc1CN1CCc2nc(N3CCN(C4CCC4)CC3)ncc2C1 [Compound 616, 2-(4-cyclobutylpiperazin-1-yl)-6-[(1-methyl-1H-imidazol-2-yl)methyl]-5,6,7,8-tetrahydropyrido[4,3-d]pyrimidine]"
3,≥ 90%,"CC(C)CCN1CCc2nc(N3CCN(C4CCC4)CC3)ncc2C1 [Compound 626, 2-(4-cyclobutylpiperazin-1-yl)-6-(3-methylbutyl)-5,6,7,8-tetrahydropyrido[4,3-d]pyrimidine]"
4,≥ 90%,"CCCC(C)CN1CCc2ncnc(N3CCN(C4CCC4)CC3)c2CC1 (stereo not drawn) [Compound 170, 4-(4-cyclobutylpiperazin-1-yl)-7-(2-methylpentyl)-6,7,8,9-tetrahydro-5H-pyrimido[4,5-d]azepine]"
5,≥ 90%,"CC(C1CC1)N1CCc2c(ncnc2N2CCN(C3CCC3)CC2)C1 (stereo not drawn) [Compound 124, 4-(4-cyclobutylpiperazin-1-yl)-7-(1-cyclopropylethyl)-5,6,7,8-tetrahydropyrido[3,4-d]pyrimidine]"
6,≥ 90%,"Fc1ccccc1CN1CCc2nc(N3CCN(C4CCC4)CC3)ncc2C1 [Compound 611, 2-(4-cyclobutylpiperazin-1-yl)-6-(2-fluorobenzyl)-5,6,7,8-tetrahydropyrido[4,3-d]pyrimidine]"
7,≥ 90%,"Fc1ccc(CN2CCc3nc(N4CCN(C5CCC5)CC4)ncc3C2)cc1 [Compound 613, 2-(4-cyclobutylpiperazin-1-yl)-6-(4-fluorobenzyl)-5,6,7,8-tetrahydropyrido[4,3-d]pyrimidine]"
8,≥ 90%,"CCN(CC)CCCN1CCN(c2ncnc3c2CCN(Cc2ccccc2)C3)CC1 [Compound 20, 3-[4-(7-benzyl-5,6,7,8-tetrahydropyrido[3,4-d]pyrimidin-4-yl)piperazin-1-yl]-N,N-diethylpropan-1-amine]"

# Same assay, conditions: test compound 4 μM, 1 μM histamine; read-out: percent inhibition of agonist-induced GTP-gammaS binding to H3
row,inhibition at 4 µM,SMILES
1,≥ 90%,"O=C(c1ccc(F)cc1)N1CCc2cnc(N3CCN(C4CCC4)CC3)nc2CC1 [Compound 10, [2-(4-Cyclobutyl-piperazin-1-yl)-5,6,8,9-tetrahydro-pyrimido[4.5-d]azepin-7-yl]-(4-fluoro-phenyl)-methanone]"
